# Tests used:
# Assay in all cases: relative viability (nuclei count vs DMSO), 5 days (fraction); higher = more cells survive
# [1] = compound: CN(C)C/C=C/C(=O)Nc1cc2c(Nc3ccc(F)c(Cl)c3)ncnc2cc1O[C@H]1CCOC1 [Afatinib] + CC(C)C[C@H](NC(=O)[C@H](Cc1ccccc1)NC(=O)c1cnccn1)B(O)O [Bortezomib] (partner 0.002 µM)
# Method in brief: (§1)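 Values are medians from duplicate plates. Each reflects relative viability, defined as the nuclei count of treated wells over that of vehicle wells. Lung cancer cell lines in 1536-well plates were pin-tool dosed one day after seeding with one drug alone or with a fixed anchor-drug dose plus five library-drug doses (not always all listed) in √10 steps, then fixed, stained and imaged at 4× after 5 days.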
# [2] = compound: CN(C)C/C=C/C(=O)Nc1cc2c(Nc3ccc(F)c(Cl)c3)ncnc2cc1O[C@H]1CCOC1 [Afatinib] + Cc1nc(Nc2ncc(C(=O)Nc3c(C)cccc3Cl)s2)cc(N2CCN(CCO)CC2)n1 [Dasatinib] (partner 0.075 µM)
# Method in brief: as §1
# [3] = compound: CN(C)C/C=C/C(=O)Nc1cc2c(Nc3ccc(F)c(Cl)c3)ncnc2cc1O[C@H]1CCOC1 [Afatinib] + CC1(C)CCC(c2ccc(Cl)cc2)=C(CN2CCN(c3ccc(C(=O)NS(=O)(=O)c4ccc(N[C@H](CCN5CCOCC5)CSc5ccccc5)c(S(=O)(=O)C(F)(F)F)c4)cc3)CC2)C1 [Navitoclax] (partner 0.5 µM)
# Method in brief: as §1
# [4] = compound: CN(C)C/C=C/C(=O)Nc1cc2c(Nc3ccc(F)c(Cl)c3)ncnc2cc1O[C@H]1CCOC1 [Afatinib] + CCNC(=O)c1noc(-c2cc(C(C)C)c(O)cc2O)c1-c1ccc(CN2CCOCC2)cc1 [Luminespib] (partner 0.01 µM)
# Method in brief: as §1
Cell Line,relative viability ([1]; first compound 0.005 µM),relative viability ([1]; first compound 0.01581 µM),relative viability ([1]; first compound 0.05 µM),relative viability ([1]; first compound 0.1581 µM),relative viability ([1]; first compound 0.5 µM),relative viability ([2]; first compound 0.005 µM),relative viability ([2]; first compound 0.01581 µM),relative viability ([2]; first compound 0.05 µM),relative viability ([2]; first compound 0.1581 µM),relative viability ([2]; first compound 0.5 µM),relative viability ([3]; first compound 0.005 µM),relative viability ([3]; first compound 0.01581 µM),relative viability ([3]; first compound 0.05 µM),relative viability ([3]; first compound 0.1581 µM),relative viability ([3]; first compound 0.5 µM),relative viability ([4]; first compound 0.005 µM),relative viability ([4]; first compound 0.01581 µM),relative viability ([4]; first compound 0.05 µM),relative viability ([4]; first compound 0.1581 µM),relative viability ([4]; first compound 0.5 µM)
201T,1.09,0.921,1.02,1.07,1.13,0.589,0.517,0.581,0.56,0.544,1.18,1.2,1.21,1.15,1.23,1.01,1.02,1.03,0.975,1.03
A-427,0.981,1.05,1,1.05,1.04,0.661,0.741,0.631,0.669,0.72,1.01,0.997,1.05,0.965,0.992,1.1,0.926,1.04,0.968,0.915
ABC-1,0.32,0.342,0.349,0.271,0.304,0.559,0.58,0.621,0.472,0.516,,,,,,0.938,0.717,0.538,0.2,0.857
BEN,0.918,0.651,0.882,0.957,0.905,0.337,0.283,0.323,0.336,0.313,0.0693,0.0755,0.16,0.0734,0.0635,0.366,0.24,0.261,0.549,0.288
CAL-12T,1.2,0.81,0.608,0.56,0.644,0.261,0.236,0.193,0.189,0.194,1.32,1.12,1.47,,0.648,0.865,0.595,0.361,0.279,0.27
COR-L23,1.1,1.04,1.11,1.03,0.988,0.575,0.484,0.536,0.426,0.535,1.14,0.982,0.948,0.997,1.03,0.804,0.603,0.773,0.644,0.68
COR-L 105,0.3,0.31,0.334,0.262,0.362,0.206,0.119,0.142,0.137,0.148,0.444,0.373,0.315,0.293,0.26,0.678,0.476,0.445,0.307,0.272
Calu-6,1.15,0.97,1.13,1,1.08,,,,,,0.836,0.786,0.831,0.914,0.81,,,,,
ChaGo-K-1,1.18,0.92,0.8,0.924,1.07,0.631,0.52,0.535,0.65,0.541,1.12,0.707,0.979,0.826,1.05,0.688,0.652,0.566,0.499,0.579
EBC-1,0.594,0.59,0.562,0.507,0.705,,,,,,0.507,0.457,0.465,0.396,0.343,,,,,
EKVX,0.811,0.655,0.468,0.308,0.199,0.334,0.429,0.339,0.319,0.231,0.655,0.46,0.349,0.26,0.197,0.714,0.858,0.58,0.191,0.298
EMC-BAC-2,1.03,1.05,1,0.927,1.03,0.314,0.302,0.33,0.315,0.296,1.09,1.1,1.02,0.895,0.906,1.23,1.13,1.13,1.04,1.16
EPLC-272H,0.879,0.88,0.905,0.78,0.861,0.326,0.341,0.262,0.253,0.244,1.21,0.944,0.911,0.742,0.868,0.239,0.482,0.228,0.267,0.172
H3255,0.252,0.194,0.221,0.184,0.231,0.202,0.195,0.264,0.326,0.242,0.101,0.0707,0.086,0.0584,0.076,0.461,0.234,0.303,0.336,0.269
HARA,1.02,0.763,0.683,0.836,0.754,0.179,0.182,0.217,0.178,0.209,1.17,1.12,1.06,0.677,0.866,0.719,0.327,0.425,0.334,0.458
HCC-15,1.04,1.09,1.04,1.04,1.03,0.609,0.646,0.617,0.609,0.642,0.682,0.719,0.745,0.684,0.686,0.352,0.56,0.313,0.48,0.34
HCC-44,1.04,0.91,0.891,0.903,1.01,,,,,,1.01,1.01,1.02,0.899,1.13,0.957,1.11,1.13,1.17,1.26
HCC-78,0.528,0.514,0.566,0.362,0.434,0.445,0.341,0.366,0.29,0.331,0.776,0.76,0.62,0.636,0.679,,,,,
HCC-366,1.1,1.07,1.08,0.972,1.06,0.697,0.666,0.605,0.62,0.723,1.14,1.04,1.18,1,1.06,,,,,

Cell Line,relative viability ([1]; first compound 0.005 µM),relative viability ([1]; first compound 0.01581 µM),relative viability ([1]; first compound 0.05 µM),relative viability ([1]; first compound 0.1581 µM),relative viability ([1]; first compound 0.5 µM),relative viability ([2]; first compound 0.005 µM),relative viability ([2]; first compound 0.01581 µM),relative viability ([2]; first compound 0.05 µM),relative viability ([2]; first compound 0.1581 µM),relative viability ([2]; first compound 0.5 µM),relative viability ([3]; first compound 0.005 µM),relative viability ([3]; first compound 0.01581 µM),relative viability ([3]; first compound 0.05 µM),relative viability ([3]; first compound 0.1581 µM),relative viability ([3]; first compound 0.5 µM),relative viability ([4]; first compound 0.005 µM),relative viability ([4]; first compound 0.01581 µM),relative viability ([4]; first compound 0.05 µM),relative viability ([4]; first compound 0.1581 µM),relative viability ([4]; first compound 0.5 µM)
HCC-827,0.704,0.25,0.299,0.316,0.342,0.14,0.135,0.16,0.175,0.15,0.173,0.168,0.157,0.18,0.147,0.228,0.133,0.227,0.169,0.148
HOP-62,0.69,0.723,0.731,0.915,0.724,0.701,0.639,0.731,0.648,0.693,1.3,1.09,1.19,1.11,1.09,1.04,0.977,0.968,0.994,0.89
IA-LM,0.929,0.719,0.796,0.828,0.825,,,,,,0.689,0.821,0.906,0.796,0.933,,,,,
LC-2-ad,1.01,1.03,1.06,0.991,1.19,0.735,0.389,0.527,0.509,0.477,0.483,0.458,0.419,0.322,0.32,1.01,1.05,1.13,1.08,1.05
LCLC-97TM1,0.733,0.646,0.648,0.463,0.619,0.926,0.766,0.812,0.709,0.842,0.383,0.546,0.411,0.344,0.455,0.785,0.862,0.708,0.722,0.68
LCLC-103H,1.01,1.09,1.05,0.929,1.12,0.424,0.454,0.48,0.459,0.483,,,,,,0.779,1.04,0.968,0.784,0.917
LK-2,,,,,,0.26,0.359,0.28,0.216,0.269,1.02,0.779,0.868,0.883,0.835,0.191,0.185,0.185,0.188,0.192
NCI-H358,,,,,,0.125,0.111,0.113,0.156,0.128,,,,,,0.27,0.0409,0.189,0.101,0.125
NCI-H650,1.07,0.802,0.957,0.949,0.597,0.559,0.428,0.481,0.599,0.411,,,,,,0.841,0.816,0.791,0.814,0.788
NCI-H661,0.877,0.751,0.662,0.444,0.415,0.858,0.527,0.375,0.341,0.332,,,,,,0.994,0.895,0.867,0.674,0.629
NCI-H1299,0.983,0.978,1.12,1.02,1.04,,,,,,1.02,1.02,1.13,1.11,1.06,,,,,
NCI-H1395,,,,,,0.453,0.408,0.415,0.404,0.376,1.31,0.999,1.12,1.17,1.2,0.733,0.781,0.664,0.7,0.665
NCI-H1563,0.882,0.774,0.919,0.694,0.759,0.476,0.435,0.437,0.501,0.451,,,,,,0.489,0.558,0.552,0.501,0.515
NCI-H1703,0.414,0.299,0.343,0.288,0.281,,,,,,1.22,0.95,1.34,0.746,0.641,,,,,
NCI-H1793,,,,,,0.33,0.341,0.343,0.361,0.272,0.404,0.348,0.356,0.357,0.32,0.19,0.215,0.238,0.168,0.173
NCI-H1944,,,,,,0.211,0.205,0.21,0.185,0.186,1.04,0.959,0.903,0.668,0.765,0.609,0.629,0.552,0.498,0.491
NCI-H2170,,,,,,0.352,0.281,0.157,0.131,0.155,0.481,0.454,0.284,0.187,0.2,0.831,0.671,0.449,0.163,0.231
NCI-H2342,,,,,,0.315,0.281,0.295,0.305,0.297,,,,,,0.713,0.648,0.699,0.627,0.583
SK-MES-1,,,,,,0.247,0.203,0.18,0.139,0.16,1.16,0.965,0.655,0.731,0.556,0.476,0.399,0.481,0.277,0.49
